What follows are compounds tested on HCV replicon (assay: HCV replicon replication assay (NPT ELISA) in Huh-7 replicon-containing cells). Details: Hepatitis C virus, 72 h; inhibition of HCV replicon replication, Huh-7 HCV replicon-containing cells, three days.
Assay type: cell-based, Hepatitis C virus
Experimental: Compounds claimed herein are tested for the ability to inhibit viral replication of the Hepatitis C replicon in cultured cells in which the HCV replicon construct has been incorporated. The HCV replicon system was described by Bartenschlager, et. al (Science, 285, pp. 110-113 (1999)). The replicon system is predictive of in vivo anti-HCV activity; compounds that are active in humans uniformly evidence activity in the replicon assay.
In this assay HCV replicon containing cells are treated with different concentrations of the test compound to ascertain the ability of the test compound to suppress replication of the HCV replicon. As a positive control, HCV replicon-containing cells are treated with different concentrations of interferon alpha, a known inhibitor of HCV replication. The replicon assay system includes Neomycin Phosphotransferase (NPT) as a component of the replicon itself in order to detect the transcription of replicon gene products in the host cell. Cells in which the HCV replicon is actively replicating have high levels of NPT; the level of NPT is proportional to HCV replication. […] The NPT level of each sample is measured using a captured ELISA.
The HCV replicon contains, 5′-3′, the HCV-IRES, the neomycin phosphotransferase (neo) gene, the IRES of encephalomyocarditis virus, which directs translation of HCV sequences NS3 to NS5B, and the 3′-NTR. The sequence of the HCV replicon has been deposited in GenBank (Accession no. AJ242652).
The replicon is transfected into Huh-7 cells using standard methods such as electroporation.
HCV replicon-containing cells are rinsed with once PBS once; 2 mls of trypsin are then added. Cells are incubated at 37° C. in a 5% CO2 incubator for 3-5 minutes. 10 mls of complete medium is added to stop the reaction. Cells are blown gently, put into a 15 ml tube, and spun at 1200 rpm for four minutes. The trypsin/medium solution is removed and 5 mls of medium (500 ml DMEM (high glucose)) from BRL catalog #12430-054; 50 mls 10% FBS, 5% Geneticin G418 (50 mg/ml, BRL catalog #10131-035), 5 ml MEM non-essential amino acids (100×BRL #11140-050) and 5 ml pen-strep (BRL #15140-148) is added. The cells and media are mixed carefully
Cells are plated with screening medium (500 ml DMEM (BRL #21063-029), 50 ml FBS (BRL #10082-147) and 5 ml MEM non-essential amino acid (BRL #11140-050) at 6000-7500 cells/100 μl/well of 96 well plate (6-7.5×10^5 cells/10 ml/plate). Plates are placed into 37° C. 5% CO2 incubator overnight. 6D. Assay
The following morning, drugs (test compounds or interferon alpha) are diluted in 96 well U bottom plates with media or DMSO/media, depending on the final concentration chosen for screening. Generally for 6 concentrations of each test compounds ranging from 10 micromolar to 0.03 micromolar are applied. 100 μl of the test compound dilution is placed in wells of the 96 well plate containing the HCV replicon cells. Media without drug is added to some wells as a negative controls. DMSO is known to affect cell growth. Therefore, if drugs diluted in DMSO are used, all wells, including negative control (media only) and positive control (interferon alpha) wells, must contain the same concentration of DMSO, for single dose screening. The plates are incubated at 37° C. in a humidified 5% CO2 environment for three days.
On day four, the NTPII assay is quantitated. The medium is poured from the plates and the plates are washed once in 200 μl of PBS. The PBS is then decanted and the plates tapped in a paper towel to remove any remaining PBS. Cells are fixed in situ with 100 id/well of pre-cooled (−20° C.) methanol:acetone (1:1) and the plates are placed at −20° C. for 30 minutes.
The fixing solution is poured from the plates and the plates allowed to air-dry completely (approximately one hour). The appearance of the dried cell layer is recorded and the density of the cells in the toxic wells is scored with the naked eye. […]

How did the EC50 turn out when C=CC1CC1(NC(=O)[C@@H]1C[C@@H](Oc2cc(-c3ccccc3)nc3cc(OC)ccc23)CN1C(=O)[C@H](C1CCCCC1)N1CCCCC1)C(=O)NS(=O)(=O)C1CC1 (stereo partly drawn) [Compound 64, (2S,4R)-1-((S)-2-cyclohexyl-2-(piperidin-1-yl)acetyl)-N-(1-(cyclopropylsulfonylcarbamoyl)-2-vinylcyclopropyl)-4-(7-methoxy-2-phenylquinolin-4-yloxy)pyrrolidine-2-carboxamide] was run?
Its EC50 is under 100 µM.

Which EC50 does the source give for C=C[C@H]1C[C@@]1(NC(=O)[C@@H]1C[C@@H](Oc2cc(-c3ccccc3)nc3cc(OC)ccc23)CN1C(=O)[C@H](c1ccccc1)N1CCCCC1)C(=O)NS(=O)(=O)C1CC1 [Compound 65, (2S,4R)-N-((1S,2R)-1-(cyclopropylsulfonylcarbamoyl)-2-vinylcyclopropyl)-4-(7-methoxy-2-phenylquinolin-4-yloxy)-1-((S)-2-phenyl-2-(piperidin-1-yl)acetyl)pyrrolidine-2-carboxamide] here?
Its EC50 is under 100 µM.

Which EC50 does the source give for C=C[C@@H]1C[C@]1(NC(=O)[C@@H]1C[C@@H](Oc2cc(-c3ccccc3)nc3cc(OC)ccc23)CN1C(=O)[C@H](c1ccccc1)N1CCCCC1)C(=O)NS(=O)(=O)C1CC1 [Compound 66, (2S,4R)-N-((1R,2S)-1-(cyclopropylsulfonylcarbamoyl)-2-vinylcyclopropyl)-4-(7-methoxy-2-phenylquinolin-4-yloxy)-1-((S)-2-phenyl-2-(piperidin-1-yl)acetyl)pyrrolidine-2-carboxamide] here?
Its EC50 is under 100 µM.

Which EC50 does the source give for C=CC1CC1(NC(=O)[C@@H]1C[C@@H](Oc2cc(-c3ccccc3)nc3cc(OC)ccc23)CN1C(=O)[C@H](C)N1CCCCC1)C(=O)NS(=O)(=O)C1CC1 (stereo partly drawn) [Compound 67, (2S,4R)-N-(1-(cyclopropylsulfonylcarbamoyl)-2-vinylcyclopropyl)-4-(7-methoxy-2-phenylquinolin-4-yloxy)-1-((S)-2-(piperidin-1-yl)propanoyl)pyrrolidine-2-carboxamide] here?
Its EC50 is under 100 µM.

C=CC1CC1(NC(=O)[C@@H]1C[C@@H](Oc2cc(-c3ccccc3)nc3cc(OC)ccc23)CN1C(=O)[C@H](C(C)C)N1CCCCC1)C(=O)NS(=O)(=O)C1CC1 (stereo partly drawn) [Compound 68, (2S,4R)-N-(1-(cyclopropylsulfonylcarbamoyl)-2-vinylcyclopropyl)-4-(7-methoxy-2-phenylquinolin-4-yloxy)-1-((S)-3-methyl-2-(piperidin-1-yl)butanoyl)pyrrolidine-2-carboxamide] was tested. Which EC50 did it give?
The EC50 was under 100 µM.

For C=CC1CC1(NC(=O)[C@@H]1C[C@@H](Oc2cc(-c3ccccc3)nc3cc(OC)ccc23)CN1C(=O)[C@H](CC(C)C)N1CCCCC1)C(=O)NS(=O)(=O)C1CC1 (stereo partly drawn) [Compound 69, (2S,4R)-N-(1-(cyclopropylsulfonylcarbamoyl)-2-vinylcyclopropyl)-4-(7-methoxy-2-phenylquinolin-4-yloxy)-1-((S)-4-methyl-2-(piperidin-1-yl)pentanoyl)pyrrolidine-2-carboxamide], which EC50 is on record?
Its EC50 is under 100 µM.

Source: US8435984B2, “Tertiary amine substituted peptides useful as inhibitors of HCV replication” (Achillion Pharmaceuticals, Inc., priority 2007, dated 2013)
